# Data published in patent US20230257373A1, “QUORUM SENSING INHIBITORS AND METHODS OF USE” (priority 2020, published 2023).
# Where two headings read alike, the source gives them in different places.
# Experiments:
# [1] = test system: V. vulnificus; test: Growth of V. vulnificus with inhibitor; format: cell-based; details: high concentrations
# Excerpt: Many sulfonamide-containing compounds are known to target the folate synthesis pathway in bacteria and inhibit growth (bacteriostatic), and thus these “sulfa drugs” have been used as broad-spectrum antibiotics for decades (Hammoudeh et al., 2013, Roland et al., 1979). […] We also tested the stability of the inhibitors in bacterial cultures and the timing of the inhibitory effect.
# [2] = test system: PluxC-gfp reporter in V. vulnificus; test: PluxC-gfp reporter in V. vulnificus strains; details: Vibrio vulnificus
# [3] = test system: OpaR; test: E. coli bioassay expressing OpaR (IPTG-inducible plasmid); format: cell-based, V. parahaemolyticus; details: 25 μM PTSP
# Excerpt: (§1) We hypothesized that there were several possible reasons for the observed difference in PTSP inhibition in the various Vibrio species, including but not limited to: 1) differences in LuxR-inhibitor interaction(s), 2) differences in diffusion of the inhibitor across the membranes, or 3) stability of the inhibitor in the cell and/or cell culture. To examine PTSP activity in a common strain background, we cloned the luxR gene from each Vibrio species into a plasmid under control of an IPTG-inducible promoter and assayed the effect of PTSP against these proteins in the E. coli bioassay. […] We conclude that the differences in PTSP activity in Vibrio species is due to differences in interaction between PTSP and the LuxR-type protein in each Vibrio.
# (§2) In E. coli assays expressing the five different LuxR-type proteins (luxR, smcR, opaR, vcpR, hapR), slight changes to the protocol were implemented. The luxR genes were cloned under control of the IPTG-inducible Ptac promoter in plasmid pMMB67EH-kanR. […] Strains expressing hapR or smcR required 50 μM IPTG to observe activation of the GFP reporter; IPTG was not added to strains expressing luxR, vcpR, or opaR.
# [4] = test system: V. vulnificus protease activity; test: Protease assay (azocasein) in V. vulnificus; details: for IC50: Vibrio vulnificus
# [5] = test system: V. cholerae; test: Quorum sensing reporter in V. cholerae; details: even at high concentrations
# [6] = test system: V. coralliilyticus protease activity; test: Protease assay (azocasein) in V. coralliilyticus; details: 2.5 μM PTSP vs DMSO
# [7] = molecular target: LuxR (Vibrio harveyi, UniProt P21308); test: ITC analysis of LuxR interaction with inhibitors; format: binding, V. campbellii; design: made in house; host or cells: E. coli BL21(DE3)
# LuxR, sequence (P21308 whole entry): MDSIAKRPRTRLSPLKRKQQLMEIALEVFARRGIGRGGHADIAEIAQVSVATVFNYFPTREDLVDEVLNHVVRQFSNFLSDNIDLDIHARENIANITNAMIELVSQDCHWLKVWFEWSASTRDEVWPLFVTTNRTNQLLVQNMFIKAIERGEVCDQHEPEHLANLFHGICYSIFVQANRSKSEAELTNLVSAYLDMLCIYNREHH
# Excerpt: (§3) To test the validity of the modelling predictions for PTSP, we performed isothermal titration calorimetry (ITC) to determine the binding affinity of SmcR and LuxR for PTSP. […] We noted that PTSP binding to both LuxR and SmcR had lower entropy and enthalpy compared to SmcR binding to Qstatin. […] Thus, we conclude that the efficacy of PTSP inhibition in vivo in these two Vibrio species correlates to the binding affinity determined in vitro for these two proteins.
# (§4) SmcR and LuxR were purified as described previously. EMSAs were conducted as described previously using oligonucleotides corresponding to the luxC and vvpE promoter sequences. ITC analysis was conducted using purified LuxR or His-tagged SmcR, each in gel-filtration buffer (25 mM Tris pH 7.5, 300 mM NaCl, 0.5 mM EDTA, 1 mM DTT, 2% DMSO). All molecules analyzed were diluted in the same buffer. The samples were degassed for 10 min by vacuum aspiration. Titrations were performed on a Nano-ITC (TA Instruments). […] Thermograms were analyzed using NanoAnalyze software with the independent binding model.
# [8] = test system: VcpR; test: E. coli bioassay expressing VcpR (IPTG-inducible plasmid); format: cell-based, V. coralliilyticus; details: 25 μM PTSP
# Excerpt: as §1, §2
# [9] = molecular target: SmcR (Vibrio vulnificus, UniProt Q9L8G8); test: ITC analysis of SmcR interaction with inhibitors; format: binding, V. vulnificus
# SmcR, sequence (Q9L8G8 entry or part of it): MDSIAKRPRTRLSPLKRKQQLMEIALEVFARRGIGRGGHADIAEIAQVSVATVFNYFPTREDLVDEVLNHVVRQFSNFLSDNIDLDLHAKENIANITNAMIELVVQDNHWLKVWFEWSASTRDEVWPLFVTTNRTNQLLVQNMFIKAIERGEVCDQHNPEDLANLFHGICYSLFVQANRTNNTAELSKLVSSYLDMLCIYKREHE
# Excerpt: as §3, §4
# [10] = molecular target: T1, V. campbellii LuxR (Vibrio harveyi, UniProt P21308); test: E. coli dual-color bioassay (pKM699 LuxR, pJV064 reporter); format: cell-based
# T1 construct: expressed in transfected cells; host or cells: E. coli DH10B with pKM699 and reporter pJV064
# T1 sequence (P21308 whole entry): as the sequence (P21308 whole entry) above
# Excerpt: Previously, we developed a bioassay that consists of a dual-color fluorescent reporter plasmid that reports both LuxR activities: the luxCDABE promoter is activated by LuxR and drives expression of gfp, and the VIBHAR_05222 promoter is repressed by LuxR and drives expression of mCherry (van Kessel et al., 2013b) (FIG. 2A). We used this reporter plasmid in an E. coli strain that also contains a plasmid expressing LuxR from its native promoter.
# A bioassay was developed to monitor LuxR function that consists of a dual-color reporter plasmid (pJV064) that reports both activities: the luxCDABE promoter is activated by LuxR and drives expression of gfp, and the 05222 promoter is repressed by LuxR and drives expression of mCherry (van Kessel, Ulrich et al. 2013). This reporter plasmid was used in an E. coli strain that also contains a plasmid (pKM699) expressing LuxR from its native promoter. E. coli cultures containing these two plasmids were grown at 30° C. in LB medium with chloramphenicol (10 μg/ml) and tetracycline (10 μg/ml) to select for the two plasmids. Compounds were added to the cultures at a range of concentrations, and the cultures were incubated for 16 hours shaking at 30° C.
# The dual-promoter fluorescence reporter assays were performed using E. coli strain DH10B containing two plasmids: 1) plasmid pJV064 containing the PluxC fused to GFP and P05222fused to mCherry to assess LuxR transcriptional regulation, and 2) plasmid pKM699 expressing V. campbellii luxR under control of its native promoter or empty vector pLAFR2.
# [11] = test system: PluxC-gfp reporter in V. coralliilyticus; test: PluxC-gfp reporter in V. coralliilyticus strains
structure (smiles),measurement,setting,value
O=S(=O)(c1cccs1)n1ccc(-c2ccccc2)n1 [Compound 10B],Growth rate or growth yield,[1],did not alter growth rate or growth yield
same,IC50,"[2]; ATCC27562, read-out: IC50, V. vulnificus ATCC 27562, luxCDABE reporter plasmid",40 nM
same,IC50,"[2]; ATCC27562, read-out: Inhibition (IC50) of the PluxC-gfp reporter, Vvul ATCC 27562",1.96 nM
same,IC50,"[2]; read-out: IC50, V. vulnificus, b235",2 nM
same,IC50,"[2]; read-out: IC50 values for all three V. vulnificus clinical isolates, three clinical isolates",2 to 30 nM
same,IC50,"[2]; read-out: Inhibition (IC50) of the PluxC-gfp reporter, Vvul CMPC6",29.5 nM
same,IC50,"[2]; read-out: Inhibition (IC50) of the PluxC-gfp reporter, Vvul YJ016",3.78 nM
same,Inhibition of OpaR in E. coli bioassay,[3],inhibited
same,Protease activity of wild-type strain,"[4]; 2.5 μM PTSP vs DMSO, V. vulnificus",significantly reduced protease activity
same,IC50,"[4]; ATCC27562, read-out: IC50 of protease inhibition, V. vulnificus ATCC 27562",6.8 nM
same,IC50,"[4]; read-out: IC50 of protease inhibition, V. vulnificus CMPC6",78.1 nM
same,IC50,"[4]; read-out: IC50 of protease inhibition, V. vulnificus YJ016",18.3 nM
same,Inhibition in V. cholerae (in words),[5],not active
same,Protease activity of wild-type strain,[6],significantly reduced protease activity
same,Ka,[7],2.3e+06 M⁻¹
same,ΔG,[7],-8.626 kcal/mol
same,ΔH,[7],-32.529 kcal/mol
same,ΔS,[7],−335.40 J/mol · K
same,−TΔS,[7],23.9 kcal/mol
same,Kd,[7]; 25° C.,513 nM
same,Inhibition of VcpR in E. coli bioassay,[8],inhibited
same,Ka,[9],4.85e+06 M⁻¹
same,ΔG,[9],-9.092 kcal/mol
same,ΔH,[9],-33.963 kcal/mol
same,ΔS,[9],−348.97 J/mol · K
same,−TΔS,[9],24.869 kcal/mol
same,Kd,"[9]; 25° C., read-out: Kd",227 nM
same,ΔG,[9]; listed as PTSP,-9.08 kcal/mol
same,Kd,[9]; read-out: Dissociation constant (Kd),230 nM
same,Inhibition of LuxR in the E. coli bioassay (in words),[10]; GFP and mCherry reporters,most potent
same,Time after addition at which GFP production was blocked,[10]; addition to the culture,120 min
same,Duration for which block of GFP production was maintained,[10]; longest timepoint tested,≥ 16 h
same,IC50,[10]; read-out: IC50 in the bioassay (approximate),1000 to 2000 nM
same,IC50,"[11]; read-out: IC50, V. coralliilyticus OCN008, luxCDABE reporter plasmid",2200 nM
same,IC50,"[11]; read-out: Inhibition (IC50) of the PluxC-gfp reporter, Vcoral OCN 008",1430 nM
same,IC50,"[11]; read-out: Inhibition (IC50) of the PluxC-gfp reporter, Vcoral OCN 014",2370 nM
